According to patent US20090099029A1, “Methods and substrates for conducting assays” (Invitrogen Corporation, priority 2005, published 2009):

Target: kinases of Table 5 (Homo sapiens, UniProt P16591)
Assay: Further analysis of a plurality of inhibitors and a plurality of kinases (Table 5 inhibition results)
Assay type: biochemical
Set-up: scale not given here
Settings: kinase FER (Part II, plate H5, Domain 1); inhibitor 100 uM
From the text: (§1) The wash solution is then discarded.

Sequence of kinases of Table 5 (Homo sapiens, UniProt P16591) (P16591 whole entry): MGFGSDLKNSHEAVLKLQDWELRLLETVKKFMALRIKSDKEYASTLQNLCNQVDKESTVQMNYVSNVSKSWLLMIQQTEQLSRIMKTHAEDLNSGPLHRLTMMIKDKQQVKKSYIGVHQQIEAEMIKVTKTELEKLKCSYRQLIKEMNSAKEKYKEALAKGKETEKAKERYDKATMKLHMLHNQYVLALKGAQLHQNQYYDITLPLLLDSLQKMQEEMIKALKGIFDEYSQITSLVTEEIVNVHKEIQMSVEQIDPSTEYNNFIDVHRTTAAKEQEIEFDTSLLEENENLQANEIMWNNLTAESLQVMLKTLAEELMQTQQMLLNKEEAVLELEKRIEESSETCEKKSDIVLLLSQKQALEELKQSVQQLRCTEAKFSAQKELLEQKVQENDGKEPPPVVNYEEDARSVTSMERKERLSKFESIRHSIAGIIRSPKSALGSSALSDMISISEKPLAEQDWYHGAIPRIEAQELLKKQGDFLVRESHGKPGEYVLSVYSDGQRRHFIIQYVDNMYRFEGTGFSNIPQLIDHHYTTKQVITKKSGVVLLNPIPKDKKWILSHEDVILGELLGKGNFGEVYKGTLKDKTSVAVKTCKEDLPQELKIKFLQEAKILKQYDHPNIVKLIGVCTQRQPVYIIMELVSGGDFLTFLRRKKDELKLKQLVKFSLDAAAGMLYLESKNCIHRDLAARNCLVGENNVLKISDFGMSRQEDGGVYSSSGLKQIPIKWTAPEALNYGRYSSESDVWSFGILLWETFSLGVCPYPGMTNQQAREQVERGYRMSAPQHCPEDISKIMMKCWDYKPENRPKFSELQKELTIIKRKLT

| SMILES | Inhibition Results (Level) |
| --- | --- |
| O=c1c(O)c(-c2ccc(O)c(O)c2)oc2cc(O)cc(O)c12 [Quercetin] | 1 |
| CC(=O)c1c(O)c(C)c(O)c(Cc2c(O)c3c(c(C(=O)/C=C/c4ccccc4)c2O)OC(C)(C)C=C3)c1O [Rottlerin (Mallotoxin)] | 2 |
| O=S(=O)(NCCNC/C=C/c1ccc(Br)cc1)c1cccc2cnccc12 [H-89] | 2 |

Same assay, conditions: kinase FER; inhibitor 100 uM

| Inhibition level | SMILES |
| --- | --- |
| 1 | COc1cc2ncnc(Nc3cccc(Cl)c3)c2cc1OC [AG 1478] |
| 2 | O=c1c(-c2ccc(O)cc2)coc2cc(O)cc(O)c12 [Genistein] |
| 2 | Cn1cc(C2=C(c3cn(CCCSC(=N)N)c4ccccc34)C(=O)NC2=O)c2ccccc21 [Ro-31-8220] |
| 2 | CC(C)(C)n1nc(-c2ccc(Cl)cc2)c2c(N)ncnc21 [PP2] |

| SMILES | Inhibition level |
| --- | --- |
| N#C/C(=C/c1ccc(O)c(O)c1)C(=O)NCc1ccccc1 [AG 490] | 2 |

Target: kinases of Table 5 (Homo sapiens, UniProt Q8IU85)
Assay: as above
Assay type: biochemical
Set-up: scale not given here
Settings: kinase LOC57118 (Part II, plate D2, Domain 1); inhibitor 100 uM
From the text: as §1

Sequence of kinases of Table 5 (Homo sapiens, UniProt Q8IU85) (Q8IU85 whole entry): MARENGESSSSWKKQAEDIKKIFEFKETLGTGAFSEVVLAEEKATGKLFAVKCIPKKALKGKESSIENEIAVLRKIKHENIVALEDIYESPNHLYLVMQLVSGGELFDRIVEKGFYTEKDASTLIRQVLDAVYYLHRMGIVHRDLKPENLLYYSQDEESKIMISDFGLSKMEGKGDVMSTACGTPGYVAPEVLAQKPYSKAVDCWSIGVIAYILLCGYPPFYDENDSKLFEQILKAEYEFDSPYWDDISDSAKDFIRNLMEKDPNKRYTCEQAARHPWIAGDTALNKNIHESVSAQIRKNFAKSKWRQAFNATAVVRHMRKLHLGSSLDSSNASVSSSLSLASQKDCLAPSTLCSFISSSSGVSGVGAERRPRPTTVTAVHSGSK

| SMILES | Inhibition Results (Level) |
| --- | --- |
| O=c1c(O)c(-c2ccc(O)c(O)c2)oc2cc(O)cc(O)c12 [Quercetin] | 0 |
| CC(=O)c1c(O)c(C)c(O)c(Cc2c(O)c3c(c(C(=O)/C=C/c4ccccc4)c2O)OC(C)(C)C=C3)c1O [Rottlerin (Mallotoxin)] | 0 |
| O=S(=O)(NCCNC/C=C/c1ccc(Br)cc1)c1cccc2cnccc12 [H-89] | 1 |

Same assay, conditions: kinase LOC57118; inhibitor 100 uM

| Inhibition level | SMILES |
| --- | --- |
| 0 | COc1cc2ncnc(Nc3cccc(Cl)c3)c2cc1OC [AG 1478] |
| 0 | O=c1c(-c2ccc(O)cc2)coc2cc(O)cc(O)c12 [Genistein] |
| 0 | Cn1cc(C2=C(c3cn(CCCSC(=N)N)c4ccccc34)C(=O)NC2=O)c2ccccc21 [Ro-31-8220] |
| 0 | CC(C)(C)n1nc(-c2ccc(Cl)cc2)c2c(N)ncnc21 [PP2] |

| SMILES | Inhibition level |
| --- | --- |
| N#C/C(=C/c1ccc(O)c(O)c1)C(=O)NCc1ccccc1 [AG 490] | 1 |

Target: T1, kinases of Table 5 (Homo sapiens, UniProt Q9UQB9)
T1 sequence (Q9UQB9 1-309): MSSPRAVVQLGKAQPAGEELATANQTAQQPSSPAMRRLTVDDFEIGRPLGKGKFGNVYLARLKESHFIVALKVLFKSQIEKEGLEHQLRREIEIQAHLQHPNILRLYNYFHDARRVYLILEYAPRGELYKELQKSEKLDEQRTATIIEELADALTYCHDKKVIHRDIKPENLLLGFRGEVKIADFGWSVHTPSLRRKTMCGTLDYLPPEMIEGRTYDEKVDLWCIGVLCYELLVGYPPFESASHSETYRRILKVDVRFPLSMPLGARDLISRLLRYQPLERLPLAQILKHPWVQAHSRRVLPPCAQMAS
Assay: as above
Assay type: biochemical
Set-up: scale not given here
Settings: kinase STK13 (Part I, plate G11, Domain 1); inhibitor 100 uM
From the text: as §1

| Inhibition Results (Level) | SMILES |
| --- | --- |
| 1 | COc1cc2ncnc(Nc3cccc(Cl)c3)c2cc1OC [AG 1478] |
| 2 | O=c1c(-c2ccc(O)cc2)coc2cc(O)cc(O)c12 [Genistein] |
| 2 | Cn1cc(C2=C(c3cn(CCCSC(=N)N)c4ccccc34)C(=O)NC2=O)c2ccccc21 [Ro-31-8220] |
| 2 | CC(C)(C)n1nc(-c2ccc(Cl)cc2)c2c(N)ncnc21 [PP2] |
| 1 | O=S(=O)(NCCNC/C=C/c1ccc(Br)cc1)c1cccc2cnccc12 [H-89] |

The next lines start with the compound.

| SMILES | Inhibition Results (Level) |
| --- | --- |
| N#C/C(=C/c1ccc(O)c(O)c1)C(=O)NCc1ccccc1 [AG 490] | 2 |
| O=c1c(O)c(-c2ccc(O)c(O)c2)oc2cc(O)cc(O)c12 [Quercetin] | 2 |
| CC(=O)c1c(O)c(C)c(O)c(Cc2c(O)c3c(c(C(=O)/C=C/c4ccccc4)c2O)OC(C)(C)C=C3)c1O [Rottlerin (Mallotoxin)] | 1 |

Target: T2, kinases of Table 5 (Homo sapiens, UniProt P29323)
T2 sequence (P29323 19-1055): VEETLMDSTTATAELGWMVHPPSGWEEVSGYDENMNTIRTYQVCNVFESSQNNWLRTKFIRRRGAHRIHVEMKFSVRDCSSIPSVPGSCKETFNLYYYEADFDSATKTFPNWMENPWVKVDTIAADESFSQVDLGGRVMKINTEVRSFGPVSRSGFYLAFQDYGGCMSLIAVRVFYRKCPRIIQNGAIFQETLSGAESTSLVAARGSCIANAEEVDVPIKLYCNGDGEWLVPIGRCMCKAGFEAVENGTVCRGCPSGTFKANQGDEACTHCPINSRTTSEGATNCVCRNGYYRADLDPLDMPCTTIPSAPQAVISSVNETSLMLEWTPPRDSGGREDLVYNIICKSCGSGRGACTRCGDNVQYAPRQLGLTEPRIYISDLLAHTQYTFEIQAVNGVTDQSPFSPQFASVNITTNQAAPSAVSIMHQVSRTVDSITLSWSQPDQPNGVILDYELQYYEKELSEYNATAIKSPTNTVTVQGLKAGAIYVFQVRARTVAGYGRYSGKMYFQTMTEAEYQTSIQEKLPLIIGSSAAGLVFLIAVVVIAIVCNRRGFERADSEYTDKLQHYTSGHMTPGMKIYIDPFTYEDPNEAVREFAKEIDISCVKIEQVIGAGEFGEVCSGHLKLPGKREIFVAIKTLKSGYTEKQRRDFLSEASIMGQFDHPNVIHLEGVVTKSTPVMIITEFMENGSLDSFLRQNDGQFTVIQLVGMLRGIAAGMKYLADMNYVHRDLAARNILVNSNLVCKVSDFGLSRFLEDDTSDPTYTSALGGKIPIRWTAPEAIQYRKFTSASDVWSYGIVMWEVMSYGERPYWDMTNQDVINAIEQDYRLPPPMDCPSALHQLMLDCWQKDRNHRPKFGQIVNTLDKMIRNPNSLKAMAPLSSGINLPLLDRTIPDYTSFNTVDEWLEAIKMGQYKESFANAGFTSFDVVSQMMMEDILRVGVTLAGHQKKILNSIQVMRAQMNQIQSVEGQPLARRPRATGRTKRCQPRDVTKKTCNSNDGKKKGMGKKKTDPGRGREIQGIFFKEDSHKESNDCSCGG
Assay: as above
Assay type: biochemical
Set-up: scale not given here
Settings: kinase EPHB2 (Part I, plate E5, Domain 1); inhibitor 90 uM
From the text: as §1

| Inhibition Results (Level) | SMILES |
| --- | --- |
| 0 | Cn1cc(C2=C(c3cn(CCCSC(=N)N)c4ccccc34)C(=O)NC2=O)c2ccccc21 [Ro-31-8220] |

Same assay, conditions: kinase EPHB2 (Part I, plate E5, Domain 1); inhibitor 100 uM

| Inhibition Results (Level) | SMILES |
| --- | --- |
| 2 | COc1cc2ncnc(Nc3cccc(Cl)c3)c2cc1OC [AG 1478] |
| 2 | O=c1c(-c2ccc(O)cc2)coc2cc(O)cc(O)c12 [Genistein] |
| 2 | Cn1cc(C2=C(c3cn(CCCSC(=N)N)c4ccccc34)C(=O)NC2=O)c2ccccc21 [Ro-31-8220] |
| 2 | CC(C)(C)n1nc(-c2ccc(Cl)cc2)c2c(N)ncnc21 [PP2] |
| 2 | O=S(=O)(NCCNC/C=C/c1ccc(Br)cc1)c1cccc2cnccc12 [H-89] |

Second part, the compound before the results:

| SMILES | Inhibition Results (Level) |
| --- | --- |
| N#C/C(=C/c1ccc(O)c(O)c1)C(=O)NCc1ccccc1 [AG 490] | 2 |
| O=c1c(O)c(-c2ccc(O)c(O)c2)oc2cc(O)cc(O)c12 [Quercetin] | 2 |
| CC(=O)c1c(O)c(C)c(O)c(Cc2c(O)c3c(c(C(=O)/C=C/c4ccccc4)c2O)OC(C)(C)C=C3)c1O [Rottlerin (Mallotoxin)] | 2 |

Same assay, conditions: kinase EPHB2 (Part I, plate E5, Domain 1); inhibitor <3.7 mM

| Inhibition Results (Level) | SMILES |
| --- | --- |
| 0 | O=c1c(-c2ccc(O)cc2)coc2cc(O)cc(O)c12 [Genistein] |

Target: T3, kinases of Table 5 (Homo sapiens, UniProt Q12866)
T3 sequence (Q12866 21-999): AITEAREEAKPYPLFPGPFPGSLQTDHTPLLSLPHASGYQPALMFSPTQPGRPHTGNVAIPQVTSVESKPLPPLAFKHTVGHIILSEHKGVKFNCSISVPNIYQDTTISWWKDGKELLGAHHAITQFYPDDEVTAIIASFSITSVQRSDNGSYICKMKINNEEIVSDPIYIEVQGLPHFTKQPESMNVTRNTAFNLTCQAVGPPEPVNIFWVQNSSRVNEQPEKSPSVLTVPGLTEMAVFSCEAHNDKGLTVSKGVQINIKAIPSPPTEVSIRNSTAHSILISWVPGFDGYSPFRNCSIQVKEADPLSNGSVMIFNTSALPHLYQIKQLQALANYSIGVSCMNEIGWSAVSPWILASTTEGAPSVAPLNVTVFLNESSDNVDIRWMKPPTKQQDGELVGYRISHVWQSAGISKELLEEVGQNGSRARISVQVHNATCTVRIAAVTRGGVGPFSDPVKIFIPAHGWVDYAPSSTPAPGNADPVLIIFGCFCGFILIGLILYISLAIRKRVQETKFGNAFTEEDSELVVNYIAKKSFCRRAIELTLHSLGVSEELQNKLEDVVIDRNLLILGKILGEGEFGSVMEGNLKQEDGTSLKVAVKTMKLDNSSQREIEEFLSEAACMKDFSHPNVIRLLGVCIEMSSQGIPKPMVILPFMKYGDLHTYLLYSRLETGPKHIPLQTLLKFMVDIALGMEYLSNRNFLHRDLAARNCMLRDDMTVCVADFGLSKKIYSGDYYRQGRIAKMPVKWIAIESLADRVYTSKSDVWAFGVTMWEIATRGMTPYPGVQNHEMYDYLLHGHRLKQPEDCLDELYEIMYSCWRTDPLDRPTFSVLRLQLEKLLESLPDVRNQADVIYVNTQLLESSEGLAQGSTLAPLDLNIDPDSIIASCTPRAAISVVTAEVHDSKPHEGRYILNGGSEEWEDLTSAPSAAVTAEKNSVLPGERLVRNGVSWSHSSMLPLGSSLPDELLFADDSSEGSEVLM
Assay: as above
Assay type: biochemical
Set-up: scale not given here
Settings: kinase MERTK (Part II, plate B11, Domain 1); inhibitor 100 uM
From the text: as §1

| SMILES | Inhibition Results (Level) |
| --- | --- |
| O=c1c(O)c(-c2ccc(O)c(O)c2)oc2cc(O)cc(O)c12 [Quercetin] | 1 |
| CC(=O)c1c(O)c(C)c(O)c(Cc2c(O)c3c(c(C(=O)/C=C/c4ccccc4)c2O)OC(C)(C)C=C3)c1O [Rottlerin (Mallotoxin)] | 2 |
| O=S(=O)(NCCNC/C=C/c1ccc(Br)cc1)c1cccc2cnccc12 [H-89] | 2 |

Same assay, conditions: kinase MERTK; inhibitor 100 uM

| Inhibition level | SMILES |
| --- | --- |
| 2 | COc1cc2ncnc(Nc3cccc(Cl)c3)c2cc1OC [AG 1478] |
| 2 | O=c1c(-c2ccc(O)cc2)coc2cc(O)cc(O)c12 [Genistein] |
| 2 | Cn1cc(C2=C(c3cn(CCCSC(=N)N)c4ccccc34)C(=O)NC2=O)c2ccccc21 [Ro-31-8220] |
| 2 | CC(C)(C)n1nc(-c2ccc(Cl)cc2)c2c(N)ncnc21 [PP2] |

| SMILES | Inhibition level |
| --- | --- |
| N#C/C(=C/c1ccc(O)c(O)c1)C(=O)NCc1ccccc1 [AG 490] | 2 |
